Measured values from patent US11617726B2, “Method for preventing, treating, or ameliorating a microbial infection” (priority 2018, dated 2023).

How the values were obtained:
Type in all cases: cell-based
[1] = system: Acinetobacter baumannii isolates; experiment: Antimicrobial susceptibility test, disc diffusion method (CLSI M100-S24); design: key to Inhibition zone: “NZ” indicated that no zone of inhibition was observed; settings: for Inhibition zone: disc diffusion; for susceptibility category: IP disc
Procedure, shortened: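 Disc diffusion per CLSI M100-S24 on 33 MDR clinical A. baumannii isolates from burn wards; 0.5 McFarland inoculum swabbed onto Mueller-Hinton agar, incubated aerobically 35-37° C, 18-20 h. Zone diameters measured to nearest mm and categorized S/I/R by CLSI breakpoints.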

[2] = system: Acinetobacter baumannii isolates and Acinetobacter baumannii ATCC BAA 747; experiment: MIC determination by broth dilution method (CLSI M07-A9)
Experimental: (§1) Minimum Inhibitory Concentration (MIC) is the lowest concentration of an antimicrobial agent that prevents visible growth of a microorganism in an agar or broth dilution susceptibility test. MIC of thymoquinone was determined by the broth dilution method against 33 MDR Acinetobacter baumannii strains and standard sensitive culture collection strain of Acinetobacter baumannii and Pseudomonas aeruginosa. The MIC of gentamicin was deter lined by broth dilution method against six MDR Acinetobacter baumannii strains and standard sensitive culture collection strains of Acinetobacter baumannii and Pseudomonas aeruginosa. MIC testing was performed according to the recommendations and guidelines of Clinical Laboratory Standard Institutes (CLSI M07-A9; 2012). Clinical and Laboratory Standards Institute (CLSI), “Methods for Dilution Antimicrobial Susceptibility Tests for Bacteria That Grow Aerobically; Approved Standard,” Document M07-A9, Clinical and Laboratory Standards Institute (CLSI), Wayne, Pa., USA, 2012.
(§2) Twenty-one grams of Mueller-Hinton Broth (MHB) was suspended in 1 Liter distilled water and then boiled to dissolve the powder completely. The medium was sterilized by autoclaving at 121° C. for 15 min. After autoclaving, the medium was cooled to room temperature before use or stored in the fridge until used.
(§3) Thymoquinone was weighed and dissolved in Dimethyl sulfoxide (DMSO) to produce a thymoquinone stock solution with a concentration of 5,120 μg/ml. Gentamicin sulfate was weighed and dissolved in water to produce a gentamicin sulfate stock solution with a concentration of 5,120 μg/ml, equivalent to gentamicin base.
(§4) Dilutions of thymoquinone and gentamicin sulfate stock solutions were prepared volumetrically in the MHB as follows:
(§5) One mL of original stock solution (5,120 μg/ml) was added to 9 ml sterile MHB to give the working first dilution (512 μg/mL). 12 sterile 7 mL PJ tubes were arranged in a rack in a row. Each tube contained one mL sterile MHB. Ten tubes were labeled as 128 μg/mL, 64 μg/mL, 32 μg/mL, 16 μg/mL, 8 μg/mL, 4 μg/mL, 2 μg/mL, 1 μg/mL, 0.5 μg/mL and 0.25 μg/mL. The eleventh and twelfth tubes were labeled as positive and negative control, respectively.
(§6) The working dilution (512 μg/mL) was serially diluted to give two-fold dilutions. One mL of the working dilution (512 μg/mL) was dispensed in the first tube (labeled as 128 μg/mL) to give a concentration of 256 μg drug/mL MHB. One mL of the first tube was added to the second tube (labeled as 64 μg/mL) to give a concentration of 128 μg drug/mL MHB. One mL of the second tube was transferred to the third tube (labeled as 32 μg/mL) to give a concentration of 64 μg drug/mL MHB. One mL of the third tube was added to the fourth tube (labeled as 16 μg/mL) to give a concentration of 32 μg drug/mL MHB. One mL of the fourth tube was dispensed in the fifth tube (labeled as 8 μg/mL) to give a concentration of 16 μg drug/mL MHB. One mL of the fifth tube was dispensed in the sixth tube (labeled as 4 μg/mL) to give a concentration of 8 μg drug/mL MHB. One mL of the sixth tube was added to the seventh tube (labeled as 2 μg/mL) to give a concentration of 4 μg drug/mL MHB. One mL of the seventh tube was added to the eighth tube (labeled as 1 μg/mL) to give a concentration of 2 μg drug/mL MHB. One mL of the eighth tube was transferred to the ninth tube (labeled as 0.5 μg/mL) to give a concentration of 1 μg drug/mL MHB. One mL of the ninth tube was transferred to the tenth tube (labeled as 0.25 μg/mL) to give a concentration of 0.5 μg drug/mL MHB. The contents were mixed thoroughly by pipetting up and down three times. One mL of the content of the tenth tube was discarded.
(§7) The inoculum suspensions (at 1-2×10^8 CFU/mL) were diluted 1:100 in MHB to obtain 1×10^6 CFU/mL. One mL of the diluted inoculum suspension (1×10^6 CFU/mL) was transferred to each tube except tube 12.
(§8) All inoculated tubes were incubated for 16-20 hours at 37° C. aerobically. […]

[3] = system: Pseudomonas aeruginosa ATCC 27853; experiment: as above; settings: P. aeruginosa ATCC 27853
Experimental: as §1, §2, §3, §4, §5, §6, §7, §8

Row | Compound | Inhibition zone ([1]; isolate AB1) | Inhibition zone ([1]; isolate AB2) | Inhibition zone ([1]; isolate AB3) | Inhibition zone ([1]; isolate AB4) | Inhibition zone ([1]; isolate AB5) | Inhibition zone ([1]; isolate AB6) | Inhibition zone ([1]; isolate AB7) | Inhibition zone ([1]; isolate AB8) | Inhibition zone ([1]; isolate AB9) | Inhibition zone ([1]; isolate AB10) | Inhibition zone ([1]; isolate AB11) | Inhibition zone ([1]; isolate AB12) | Inhibition zone ([1]; isolate AB13) | Inhibition zone ([1]; isolate AB14) | Inhibition zone ([1]; isolate AB15) | Inhibition zone ([1]; isolate AB16) | Inhibition zone ([1]; isolate AB17) | Inhibition zone ([1]; isolate AB18) | Inhibition zone ([1]; isolate AB19) | Inhibition zone ([1]; isolate AB20) | further results
1 | O=C(N[C@H](CO)[C@H](O)c1ccc([N+](=O)[O-])cc1)C(Cl)Cl [CHL, Chloramphenicol] | NZ | 24 mm | 26 mm | 23 mm | 8 mm | NZ | NZ | 7 mm | 24 mm | NZ | NZ | NZ | NZ | NZ | 10 mm | 30 mm | 13 mm | 8 mm | 8 mm | NZ | Inhibition zone ([1]; isolate AB21): NZ; Inhibition zone ([1]; isolate AB22): NZ; Inhibition zone ([1]; isolate AB23): NZ; Inhibition zone ([1]; isolate AB24): 8 mm; Inhibition zone ([1]; isolate AB25): NZ; Inhibition zone ([1]; isolate AB26): 25 mm; Inhibition zone ([1]; isolate AB27): NZ; Inhibition zone ([1]; isolate AB28): 14 mm; Inhibition zone ([1]; isolate AB29): 12 mm; Inhibition zone ([1]; isolate AB30): 11 mm; Inhibition zone ([1]; isolate AB31): 8 mm; Inhibition zone ([1]; isolate AB32): 9 mm; Inhibition zone ([1]; isolate AB33): 18 mm
2 | CN(C)[C@@H]1C(O)=C(C(N)=O)C(=O)[C@@]2(O)C(O)=C3C(=O)c4c(O)cccc4[C@@](C)(O)[C@H]3C[C@@H]12 [TET, Tetracycline] | NZ | 22 mm | 22 mm | 21 mm | NZ | NZ | 21 mm | 26 mm | 23 mm | NZ | NZ | NZ | NZ | 24 mm | 19 mm | NZ | 21 mm | 20 mm | 17 mm | 28 mm | Inhibition zone ([1]; isolate AB21): 19 mm; Inhibition zone ([1]; isolate AB22): 20 mm; Inhibition zone ([1]; isolate AB23): 23 mm; Inhibition zone ([1]; isolate AB24): 19 mm; Inhibition zone ([1]; isolate AB25): 25 mm; Inhibition zone ([1]; isolate AB26): NZ; Inhibition zone ([1]; isolate AB27): 8 mm; Inhibition zone ([1]; isolate AB28): 20 mm; Inhibition zone ([1]; isolate AB29): 19 mm; Inhibition zone ([1]; isolate AB30): 20 mm; Inhibition zone ([1]; isolate AB31): NZ; Inhibition zone ([1]; isolate AB32): 28 mm; Inhibition zone ([1]; isolate AB33): 24 mm
3 | Gentamicin sulfate |  |  |  |  |  |  |  |  |  |  |  |  |  |  |  |  |  |  |  |  | MIC ([2]; A. baumannii ATCC BAA 747 (standard sensitive strain)): 1 µg/mL; MIC ([2]; isolate AB7): 32 µg/mL; MIC ([2]; isolate AB8): 64 µg/mL; MIC ([2]; isolate AB10): 32 µg/mL; MIC ([2]; isolate AB11): 32 µg/mL; MIC ([2]; isolate AB12): 32 µg/mL; MIC ([2]; isolate AB13): 32 µg/mL; MIC [3]: ≤2 µg/mL
4 | C[C@@H](O)[C@H]1C(=O)N2C(C(=O)O)=C(SCCN=CN)C[C@H]12 [IP, Imipenem] | NZ | NZ | NZ | NZ | 8 mm | 12 mm | NZ | 7 mm | NZ | NZ | NZ | 11 mm | 9 mm | 15 mm | NZ | 34 mm | 15 mm | NZ | NZ | 15 mm | susceptibility category ([1]; isolate AB16): S (Sensitive ≥22); Inhibition zone ([1]; isolate AB21): NZ; Inhibition zone ([1]; isolate AB22): 15 mm; Inhibition zone ([1]; isolate AB23): 20 mm; Inhibition zone ([1]; isolate AB24): NZ; susceptibility category ([1]; isolate AB25): S (Sensitive ≥22); Inhibition zone ([1]; isolate AB25): 23 mm; susceptibility category ([1]; isolate AB26): S (Sensitive ≥22); Inhibition zone ([1]; isolate AB26): 22 mm; Inhibition zone ([1]; isolate AB27): 9 mm; Inhibition zone ([1]; isolate AB28): 8 mm; Inhibition zone ([1]; isolate AB29): 9 mm; Inhibition zone ([1]; isolate AB30): 9 mm; Inhibition zone ([1]; isolate AB31): 9 mm; Inhibition zone ([1]; isolate AB32): 18 mm; Inhibition zone ([1]; isolate AB33): NZ
5 | CO[C@@]1(NC(=O)Cc2cccs2)C(=O)N2C(C(=O)O)=C(COC(N)=O)CS[C@@H]21 [FOX, Cefoxitin] | NZ | NZ | NZ | NZ | NZ | NZ | NZ | NZ | NZ | NZ | NZ | NZ | NZ | NZ | NZ | 22 mm | NZ | NZ | NZ | NZ | Inhibition zone ([1]; isolate AB21): NZ; Inhibition zone ([1]; isolate AB22): NZ; Inhibition zone ([1]; isolate AB23): NZ; Inhibition zone ([1]; isolate AB24): NZ; Inhibition zone ([1]; isolate AB25): NZ; Inhibition zone ([1]; isolate AB26): NZ; Inhibition zone ([1]; isolate AB27): NZ; Inhibition zone ([1]; isolate AB28): NZ; Inhibition zone ([1]; isolate AB29): NZ; Inhibition zone ([1]; isolate AB30): NZ; Inhibition zone ([1]; isolate AB31): 9 mm; Inhibition zone ([1]; isolate AB32): NZ; Inhibition zone ([1]; isolate AB33): NZ
